Tests used:
[1] = DRUGMATRIX: GABAA, Flunitrazepam, Central radioligand binding (ligand: [3H] Flunitrazepam); type: cell membranes, Rattus norvegicus, Wistar, Brain, Membrane; conditions: Not Active = under 50% inhibition at 10 µM
Substance-K receptor = biological target: T1, Substance-K receptor (Homo sapiens, UniProt P21452); type: cell membranes, CHO, Membrane; conditions: cho; further: in other assays of this panel Not Active means under 50% inhibition at 10 µM
T1 sequence (P21452 whole entry): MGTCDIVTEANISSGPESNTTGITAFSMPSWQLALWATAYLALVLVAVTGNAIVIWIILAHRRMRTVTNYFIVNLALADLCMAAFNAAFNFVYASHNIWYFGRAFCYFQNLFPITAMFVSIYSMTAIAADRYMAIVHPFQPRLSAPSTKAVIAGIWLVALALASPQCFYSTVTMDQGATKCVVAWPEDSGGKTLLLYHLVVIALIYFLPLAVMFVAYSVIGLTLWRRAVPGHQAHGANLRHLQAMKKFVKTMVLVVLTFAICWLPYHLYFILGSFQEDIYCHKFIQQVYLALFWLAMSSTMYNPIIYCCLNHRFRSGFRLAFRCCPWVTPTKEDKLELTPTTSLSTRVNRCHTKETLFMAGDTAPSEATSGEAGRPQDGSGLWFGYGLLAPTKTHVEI

Melanocortin receptor 4 = Melanocortin receptor 4 (Homo sapiens, UniProt P32245); type: cell membranes, Membrane; conditions: hek293; further: in other assays of this panel Not Active means under 50% inhibition at 10 µM
Histamine H2 receptor = Histamine H2 receptor (Homo sapiens, UniProt P25021); type: cell membranes, CHO-K1, Membrane; conditions: cho-k1; further: in other assays of this panel Not Active means under 50% inhibition at 10 µM
[2] = DRUGMATRIX: Serotonin (5-Hydroxytryptamine) 5-HT3 radioligand binding (ligand: [3H] GR-65630); type: cell membranes, Membrane; conditions: hek293; Not Active = under 50% inhibition at 10 µM
Calcitonin receptor = biological target: T2, Calcitonin receptor (Homo sapiens, UniProt P30988); type: cell membranes, Membrane; conditions: t47d; further: in other assays of this panel Not Active means under 50% inhibition at 10 µM
T2 sequence (P30988 whole entry): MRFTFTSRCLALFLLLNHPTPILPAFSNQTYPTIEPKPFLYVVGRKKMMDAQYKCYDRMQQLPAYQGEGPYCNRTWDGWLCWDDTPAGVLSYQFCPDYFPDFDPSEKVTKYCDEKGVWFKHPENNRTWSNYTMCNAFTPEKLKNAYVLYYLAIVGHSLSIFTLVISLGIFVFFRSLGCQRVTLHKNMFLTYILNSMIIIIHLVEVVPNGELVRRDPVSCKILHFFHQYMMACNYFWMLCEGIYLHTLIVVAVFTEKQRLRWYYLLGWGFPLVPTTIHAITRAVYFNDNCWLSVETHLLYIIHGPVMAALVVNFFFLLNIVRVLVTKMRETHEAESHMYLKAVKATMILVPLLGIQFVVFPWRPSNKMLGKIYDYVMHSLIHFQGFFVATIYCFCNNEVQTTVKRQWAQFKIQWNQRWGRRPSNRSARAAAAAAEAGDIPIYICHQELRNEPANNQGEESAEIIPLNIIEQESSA

[3] = DRUGMATRIX: Glutamate, NMDA, Agonism radioligand binding (ligand: [3H] CGP-39653); type: cell membranes, Rattus norvegicus, Wistar, Cerebral cortex, Membrane; conditions: Not Active = under 50% inhibition at 10 µM

Chain of Melanocortin receptor 4 (P32245 whole entry): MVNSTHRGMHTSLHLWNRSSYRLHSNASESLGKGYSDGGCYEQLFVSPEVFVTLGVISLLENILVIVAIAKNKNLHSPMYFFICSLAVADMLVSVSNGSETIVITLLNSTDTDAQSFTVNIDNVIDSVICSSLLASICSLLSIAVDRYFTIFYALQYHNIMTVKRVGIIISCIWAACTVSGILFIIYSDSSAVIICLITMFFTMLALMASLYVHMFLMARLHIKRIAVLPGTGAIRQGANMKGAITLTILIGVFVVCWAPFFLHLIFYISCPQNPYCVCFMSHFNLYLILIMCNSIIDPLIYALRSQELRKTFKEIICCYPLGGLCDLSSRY
Chain of Histamine H2 receptor (P25021 whole entry): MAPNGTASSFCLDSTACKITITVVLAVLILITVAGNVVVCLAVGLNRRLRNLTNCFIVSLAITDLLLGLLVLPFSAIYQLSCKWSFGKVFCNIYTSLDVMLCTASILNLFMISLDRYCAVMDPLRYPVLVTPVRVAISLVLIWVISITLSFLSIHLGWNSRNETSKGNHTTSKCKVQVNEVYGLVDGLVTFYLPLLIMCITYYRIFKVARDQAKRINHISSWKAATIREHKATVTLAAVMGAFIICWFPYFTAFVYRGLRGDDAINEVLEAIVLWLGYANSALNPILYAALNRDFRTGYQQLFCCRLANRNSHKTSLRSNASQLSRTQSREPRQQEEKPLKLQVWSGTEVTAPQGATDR

ClC1=C(Cl)[C@]2(Cl)[C@@H]3[C@@H]4C[C@@H]([C@H]5O[C@@H]45)[C@@H]3[C@@]1(Cl)C2(Cl)Cl [DIELDRIN]
Not Active: IC50 [1] | Ki [1] | IC50 (Substance-K receptor) | IC50 (Melanocortin receptor 4) | IC50 (Histamine H2 receptor) | IC50 [2] | Ki [2] | IC50 (Calcitonin receptor) | IC50 [3] | Ki [3]

CCN1CCN(c2cc3c(cc2F)c(=O)c(C(=O)O)cn3C2CC2)CC1 [ENROFLOXACIN]
Not Active: IC50 [1] | Ki [1] | IC50 (Substance-K receptor) | IC50 (Melanocortin receptor 4) | IC50 (Histamine H2 receptor) | IC50 [2] | Ki [2] | IC50 (Calcitonin receptor) | IC50 [3] | Ki [3]

C[C@H]1C[C@H]2[C@@H]3CCC4=CC(=O)C=C[C@]4(C)[C@@]3(F)[C@@H](O)C[C@]2(C)[C@@]1(O)C(=O)CO [BETAMETHASONE]
Not Active: IC50 [1] | Ki [1] | IC50 (Substance-K receptor) | IC50 (Melanocortin receptor 4) | IC50 (Histamine H2 receptor) | IC50 [2] | Ki [2] | IC50 (Calcitonin receptor) | IC50 [3] | Ki [3]

OC[C@H]1O[C@@H]2O[C@H]3[C@H](O)[C@@H](O)[C@@H](O[C@H]4[C@H](O)[C@@H](O)[C@@H](O[C@H]5[C@H](O)[C@@H](O)[C@@H](O[C@H]6[C@H](O)[C@@H](O)[C@@H](O[C@H]7[C@H](O)[C@@H](O)[C@@H](O[C@H]8[C@H](O)[C@@H](O)[C@@H](O[C@H]1[C@H](O)[C@H]2O)O[C@@H]8CO)O[C@@H]7CO)O[C@@H]6CO)O[C@@H]5CO)O[C@@H]4CO)O[C@@H]3CO [BETADEX]
Not Active: IC50 [1] | Ki [1] | IC50 (Substance-K receptor) | IC50 (Melanocortin receptor 4) | IC50 (Histamine H2 receptor) | IC50 [2] | Ki [2] | IC50 (Calcitonin receptor) | IC50 [3] | Ki [3]

c1ccc(Cn2ccnc2)cc1
Not Active: IC50 [1] | Ki [1] | IC50 (Substance-K receptor) | IC50 (Melanocortin receptor 4) | IC50 (Histamine H2 receptor) | IC50 [2] | Ki [2] | IC50 (Calcitonin receptor) | IC50 [3] | Ki [3]

C=CCN1CC[C@]23c4c5ccc(O)c4O[C@H]2/C(=N/N=C2\CC[C@@]4(O)[C@H]6Cc7ccc(O)c8c7[C@@]4(CCN6CC=C)[C@H]2O8)CC[C@@]3(O)[C@H]1C5 [NALOXONAZINE]
Not Active: IC50 [1] | Ki [1] | IC50 (Substance-K receptor) | IC50 (Melanocortin receptor 4) | IC50 (Histamine H2 receptor) | IC50 [2] | Ki [2] | IC50 (Calcitonin receptor) | IC50 [3] | Ki [3]

CCCCCCNC(=O)n1cc(F)c(=O)[nH]c1=O [CARMOFUR]
Not Active: IC50 [1] | Ki [1] | IC50 (Substance-K receptor) | IC50 (Melanocortin receptor 4) | IC50 (Histamine H2 receptor) | IC50 [2] | Ki [2] | IC50 (Calcitonin receptor) | IC50 [3] | Ki [3]

OC[C@H]1O[C@@H]2O[C@H]3[C@H](O)[C@@H](O)[C@@H](O[C@H]4[C@H](O)[C@@H](O)[C@@H](O[C@H]5[C@H](O)[C@@H](O)[C@@H](O[C@H]6[C@H](O)[C@@H](O)[C@@H](O[C@H]7[C@H](O)[C@@H](O)[C@@H](O[C@H]1[C@H](O)[C@H]2O)O[C@@H]7CO)O[C@@H]6CO)O[C@@H]5CO)O[C@@H]4CO)O[C@@H]3CO [ALFADEX]
Not Active: IC50 [1] | Ki [1] | IC50 (Substance-K receptor) | IC50 (Melanocortin receptor 4) | IC50 (Histamine H2 receptor) | IC50 [2] | Ki [2] | IC50 (Calcitonin receptor) | IC50 [3] | Ki [3]

CC(C)NCC(O)COc1ccc(CC(N)=O)cc1 (stereo not given) [ATENOLOL]
Not Active: IC50 [1] | Ki [1] | IC50 (Substance-K receptor) | IC50 (Melanocortin receptor 4) | IC50 (Histamine H2 receptor) | IC50 [2] | Ki [2] | IC50 (Calcitonin receptor) | IC50 [3] | Ki [3]
